Measured values taken from patent US20260256931A1, “CD276 ANTIBODY AND METHODS OF USE THEREOF” (priority 2023, published 2026).
Where a SMILES comes first, the peptide text is derived from it. [ ]: non-standard residue; d: D form. Dolaproine = CO[C@@H]([C@@H]1CCCN1)[C@@H](C)C(=O)O; Dil = CC[C@H](C)[C@H](NC)[C@@H](CC(=O)O)OC; NMeV = CN[C@H](C(=O)O)C(C)C

Key:
Format in all cases: cell-based
[1] = tested on: MDA-MB-231; test: In vitro cytotoxicity assay (MTT), MDA-MB-231; conditions: Homo sapiens, MDA-MB-231, 120 h
Protocol: (§1) The human and mouse TNBC cells were seeded in 96-well plates with a density of 10,000 cells/well for MDA-MB-468, 1,000 cells/well for MDA-MB-231 and 500 cells/well for 4T1. The free MMAF, mAb-MMAF and mAb-MMAF/IMQ were added into each well to reach the final dosages of 0-300 or 400 nM. Higher concentrations, i.e. 0-20 μM, of free IMQ and mAb-IMQ, were tested. The treated cells were incubated at 37° C. and 5% CO2 for five days and the cell viability was analyzed using MTT Cell Proliferation Assay kit.

[2] = tested on: 4T1; test: In vitro cytotoxicity assay (MTT), 4T1; conditions: Mus musculus, 4T1, 120 h
Protocol: as §1

[3] = tested on: MDA-MB-468; test: In vitro cytotoxicity assay (MTT), MDA-MB-468; conditions: Homo sapiens, 120 h, MDA-MB-468, five days
Protocol: as §1

Question: With `CC[C@H](C)[C@@H]([C@@H](CC(=O)N1CCC[C@H]1[C@H](OC)[C@@H](C)C(=O)N[C@@H](Cc1ccccc1)C(=O)O)OC)N(C)C(=O)[C@@H](NC(=O)[C@@H](NC)C(C)C)C(C)C` [MMAF, Monomethyl auristatin F] (H-[NMeV]V[Dil][Dolaproine]F-OH) as the compound, how does the IC50 [1] read?
Answer: 151 nM

Question: What about the IC50 [2] of the same compound?
Answer: 104 nM

Question: What about the IC50 [3] of the same compound?
Answer: 143 nM
